Assay results reported in patent publication US20200237871A1, “METHODS FOR MITIGATING LIVER INJURY AND PROMOTING LIVER HYPERTROPHY, REGENERATION AND CELL ENGRAFTMENT IN CONJUNCTION WITH RADIATION AND/OR RADIOMIMETIC TREATMENTS” (Janssen Pharmaceutica NV, priority 2019, published 2020).
“Also recorded” adds a separate entry of the source.

Key:
Format in all cases: in vivo, mouse
DPPIV−/− knockout mice = assay: Relative change of dissected liver lobe size after hepatic irradiation (Example 2)
Protocol: 8-12-week-old male and female Di-peptyl peptidase IV (DPPIV) −/− knockout mice and 8-12-week-old male and female C57Bl6 mice were used in this study. Animals were weighed in the beginning of the experiment and before tissue collection. All animals were housed in the Institute for Animal Studies at Albert Einstein College of medicine and fed regular rodent chow. All experiments were performed to according to protocols approved by Institutional Animal Care and Use Committee at Albert Einstein College of Medicine. Animals were made cirrhotic using CCl4 administration (intraperitoneal [IP] injections twice a week for at least 11 weeks).
Image-guided external beam irradiation was performed using a small animal radiation research platform (SARRP, Xstrahl Inc., Suwanee, Ga.). Mice were given gastrografin contrast through gavage to improve visualization of the gastrointestinal (GI) tract. After approximately 2 minutes, mice were positioned on a tubular couch and anesthetized with ˜2% Isofluorane (Isothesia, USP) in 2 L/min pure oxygen. A cone-beam computed tomography (CBCT) scan was acquired and a treatment plan irradiating the median lobe and right lobe was generated using the MuriPlan software. […]

DPPIV KO mice = assay: Engraftment of transplanted LSECs and hepatocytes by DPPIV immunostaining after HIR (Example 7); settings: Study A
Protocol: 8-12-week-old male Di-peptyl peptidase IV knockout (Dppiv^−/−) mice and 8-12-week-old male C57BL/6 mice were used in this study.
The methods were identical to Experiment 5 as described above; including the preparation of test articles (solutions of RWJ-800088), isolation and transplant of LSECs, and Hepatic irradiation. In addition, Romiplostim was purchased from pharmacy and came in 250 μg powder. It was reconstituted per manufacturers description using solvent for solution for injection. After reconstitution, a deliverable volume of 0.5 mL solution contained 250 μg of romiplostim (500 μg/mL).
Animals were weighed in the beginning of the experiment.
The mice were transplanted with DPPIV^+ 5×10^5 liver sinusoidal endothelial cells (LSECs) intrasplenically 4 or 5 days later. The mice were then injected with 300 μg/kg of RWJ-800088 or Romiplostim intraperitoneally 10 minutes after LSEC transplantation as shown in Table 7.
The mice were then monitored until they made a full recovery and returned to the cage. The mice were followed for 2 and 5 months and necropsied. The liver was excised and prepared for the frozen section. The immunostaining of DPPIV activity was performed to examine the repopulation of the transplanted DPPIV^+ cells in the liver. […]

Hemophilia A mice [1] = assay: Survival after tail bleed challenge (Example 6); settings: HIR+LSECs+drug, control Hemophilia A mice 100% died within 5 days
Description: (§1) 8-16-week-old male C57/BL6 mice, 8-16-week-old female and male B6129SF2/J mice (donor for isolating LSECs) and 8-16-week-old female and male Hemophilia mice (F^8tm1Kaz) mice were used in this study. Mice were housed in groups of up to 5 in micro-isolator cages on stainless steel racks (Allentown, Inc., Allentown, N.J.) with a total floor space of 500 cm^2. The cages utilized an external water bottle and a dual feeder rack (Fisher Scientific, Hampton, N.H.). These cages were stored in the storage rack which provided temperature, humidity, and ventilation control to each individual cage (Allentown, Inc.). Bed-o'Cobs ⅛″ (Fisher Scientific) were used as bedding material in each cage.
(§2) The methods were identical to Experiment 5 as described above; including the preparation of test articles (solutions of RWJ-800088 and AdHGF), isolation and transplant of LSECs, and Hepatic irradiation.
The livers of mice were irradiated at 50 Gy by using an X-ray irradiator (SARRP). At 24 hours post-irradiation, the LSECs (1×10^6 cells/mouse) were injected to the mouse through tail vein. An incision was made in the tail from each mouse at day 60 after hepatic irradiation (HIR) and subjected to the bleeding test.
RWJ-800088 (300 μg/kg) was administrated subcutaneously at 10 min after LSEC transplantation. AdHGF at 1×10^9 PFU/mouse was administrated intraperitoneally at 24 hours after LSEC transplantation. […]

Hemophilia A mice [2] = assay: Drabkin's tail bleeding assay (Example 6)
Description: as §1, §2
The livers of mice were irradiated at 50 Gy by using an X-ray irradiator (SARRP). At 24 hours post-irradiation, the LSECs (1×10^6 cells/mouse) were injected to the mouse through tail vein. […]
A tail bleeding test was performed in which the extent of bleeding and time to clotting over the course of 30 minutes was evaluated. FVIII protein levels were evaluated by Western blot and mRNA profiling in the blood and liver to evaluate the extent to which there was engraftment of functioning LSECs that produce FVIII. […]

methoxypolyethyleneglycol20000-propionyl-L-Isoleucyl-L-Glutamyl-Glycyl-L-Prolyl-L-Threonyl-L-Leucyl-L-Arginyl-L-Glutaminyl-L-2-Naphthylalanyl-L-Leucyl-L-Alanyl-L-Alanyl-L-Arginyl-Sarcosyl-Ne-(methoxypolyethyleneglycol20000-propionyl-L-Isoleucyl-L-Glutamyl-Glycyl-L-Prolyl-L-Threonyl-L-Leucyl-L-Arginyl-L-Glutaminyl-L-2-Naphthyl alanyl-L-Leucyl-L-Alanyl-L-Alanyl-L-Arginyl-Sarcosyl-)-Lysinamide [RWJ-800088]
volume of the non-irradiated left lobe (DPPIV−/− knockout mice; 2-months post-HIR, HIR then LSECs+/−RWJ-800088 at 24-hours post-HIR): trend for an increase
size of the irradiated lobes (median and right) (DPPIV−/− knockout mice; RWJ-800088 and HIR only): trend for a reduction
repopulation of LSECs in the irradiated liver tissue (DPPIV immunostaining) (DPPIV KO mice; 2 months after HIR, 50 Gy, LSECs 4 or 5 days after HIR, 300 μg/kg intraperitoneally 10 minutes after LSEC transplantation): repopulation of LSECs in the irradiated liver tissue was observed
DPPIV staining of liver lobes (DPPIV KO mice; 5 months after HIR, two surviving mice (mouse 1: median, right, left lobes; mouse 2: median and right lobes), listed as RWJ-80088): extensively positive staining; also recorded: strong DPPIV staining
DPPIV staining of 4 different liver lobes (DPPIV KO mice; one mouse at 2 months after HIR, median lobe least area covered): All 4 lobes showed positive staining
survival 30 days post tail bleed challenge (Hemophilia A mice [1]): 100%
haemoglobin loss (haemoglobin concentration in the collection tube) compared to FVIII deficient model (Hemophilia A mice [2]; HIR 50 Gy + LSECs + drug): significant decrease
bleeding and clotting time in functional bleeding assay (Hemophilia A mice [2]; HIR + LSEC transplantation + RWJ-800088): reduced bleeding and clotting time similar to non-Hemophilia A controls
